The results in this text go back to paper PMC9558053, “Development of a novel high-throughput screen for the identification of new inhibitors of protein S-acylation” (The Journal of Biological Chemistry, 2022).

This test addresses T1, human zDHHC7 (Homo sapiens, UniProt Q9NXF8).
T1 construct: expressed in transfected cells; host or cells: HEK293T
T1 sequence (Q9NXF8 1-308): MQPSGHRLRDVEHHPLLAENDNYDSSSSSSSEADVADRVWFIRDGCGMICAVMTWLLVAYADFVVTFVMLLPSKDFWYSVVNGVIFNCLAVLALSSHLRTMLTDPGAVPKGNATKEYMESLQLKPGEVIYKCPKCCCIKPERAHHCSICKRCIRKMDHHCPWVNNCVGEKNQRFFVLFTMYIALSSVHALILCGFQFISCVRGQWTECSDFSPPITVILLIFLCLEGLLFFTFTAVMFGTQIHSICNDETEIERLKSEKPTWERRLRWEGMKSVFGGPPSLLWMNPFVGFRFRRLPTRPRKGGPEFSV
As to the kind of experiment: GFP-SNAP25b S-acylation in HEK293T cells co-expressing zDHHC7. Particulars: in cellulo HEK293T, compound 25 μM; for inhibition at 25 µM: HEK-293T, read-out: SNAP25 S-acylation inhibition (%), zDHHC7. Type of test: cell-based. Here is the method:
We next investigated whether the identified compounds were effective at inhibiting zDHHC enzyme isoforms other than zDHHC2 (Fig. 6 and Table 1). […] We therefore treated cells coexpressing GFP-SNAP25 and each of these zDHHC enzymes with 25 μM of TTZ-1 and TTZ-2 and studied the subsequent effect on SNAP25 S-acylation. […] Importantly, the level of enzyme expression was unaffected by the compounds. […] As any major differences in the expression levels of the different enzymes could in theory contribute to the apparent differential effects of TTZ-1 and TTZ-2, we directly compared the expression of zDHHC2, zDHHC3, zDHHC7, zDHHC15, and zDHHC17 when transfected in HEK293T cells together with GFP-SNAP25.
Figure 6 Activity of TTZ-1 and TTZ-2 against SNAP25 S-acylation by human zDHHC2, zDHHC3, zDHHC7, zDHHC15, and zDHHC17 expressed in mammalian cells.A–E, HEK293T cells were transfected with a plasmid encoding GFP-SNAP25b together with either a control plasmid pEF-BOS-HA (pEF) or a plasmid encoding either HA-tagged human zDHHC2 (zD2) (A), zDHHC3 (zD3) (B), zDHHC7 (zD7) (C), zDHHC15 (zD15) (D), or zDHHC17 (zD17) (E) for 24 h. Cells were then preincubated for 4 h with TTZ-1 or TTZ-2 (25 μM final) or DMSO control before metabolic labeling with 100 μM C16:0-azide for 4 h. Cells were lysed, and proteins having incorporated C16:0-azide were labeled by click chemistry with an alkyne-IR800 dye. Protein samples were then resolved by SDS-PAGE and transferred to nitrocellulose membranes that were first stained with an infrared-680 total protein stain. Membranes were then destained and probed with an anti-HA antibody (IR680), followed by an anti-GFP antibody (IR680). Representative images are shown, and panels are presented in the following order (from top to bottom): click chemistry signal (Click [IR800]), GFP and HA immunoblots (IR680), and Total Protein Stain (IR680). Positions of the molecular mass markers (in kilodalton) are indicated on the right side of the membranes. Three independent experiments were performed either in duplicate or in triplicate, and the quantification data were gathered on the graphs below each set of membranes. […] Filled circles represent individual samples. […] Filled circles represent individual samples. Statistical analysis (ANOVA) was performed to test whether there was a significant difference between the zDHHC expression of cells treated with DMSO as a control versus similar samples treated with TTZ-1 or TTZ-2 (∗∗p < 0.01). F, samples from A, B, C, D, and E (expressing GFP-SNAP25 and HA-tagged zDHHC enzymes and treated with DMSO) were loaded on an SDS-PAGE gel and transferred to a nitrocellulose membrane. The membrane was probed for the expression of the HA-tagged enzymes with an anti-HA antibody (IR680). […]

`O=C(Nc1cccc2c1OC(c1nnn[nH]1)CN2)c1ccc(OCCCCc2ccccc2)cc1` (stereo not shown) [TTZ-2, N-(2-(1H-Tetrazol-5-yl)-3,4-dihydro-2H-benzo[b][1,4]oxazin-8-yl)-4-(4-phenylbutoxy)benzamide]: the inhibition at 25 µM worked out at 13 ± 7% and the “SNAP25 S-acylation inhibition (%), zDHHC7” value is “no significant effect”.

As to `CCCCCCCOc1ccc(C(=O)Nc2cccc3c2OC(c2nnn[nH]2)CN3)cc1` (stereo not shown) [TTZ-1, N-(2-(1H-Tetrazol-5-yl)-3,4-dihydro-2H-benzo[b][1,4]oxazin-8-yl)-4-(heptyloxy)benzamide], the inhibition at 25 µM worked out at 14 ± 7% and the “SNAP25 S-acylation inhibition (%), zDHHC7” value was “no significant effect”.

One may read the inhibition as the share of the control response that was lost under treatment.
